# According to US11046672B2, “Indolinones compounds and their use in the treatment of fibrotic diseases” (RESPIVERT LIMITED, priority 2015, dated 2021):
# Assays:
# [1] = test system: MRC5 cells; assay: Cell viability assay in MRC5 cells (MTT)
# [2] = biological target: T1, PDGFRβ (Homo sapiens (Human), UniProt P09619); assay: PDGF-BB induced phosphorylation of PDGFRβ in fibroblasts (MRC5 cells, HTRF); assay type: cell-based; settings: MRC5 cells; n = 1 unless otherwise indicated; read-out: PDGFBB-induced PDGFRβ phosphorylation in MRC5 cells (IC50)
# [3] = biological target: T1, PDGFRβ; settings: read-out: Ki PDGFRβ; mean, n = 2 unless otherwise indicated
# [4] = PAMPA permeability assay; assay type: in vitro ADME; settings: for Papp at 5 h, 10 μM: pH 7, pH 7, 10 μM
# [5] = PAMPA, pH 7, PAMPA, donor and acceptor compartments
# [6] = pH 7, PAMPA, donor and acceptor compartments
# T1 sequence (P09619 33-1106): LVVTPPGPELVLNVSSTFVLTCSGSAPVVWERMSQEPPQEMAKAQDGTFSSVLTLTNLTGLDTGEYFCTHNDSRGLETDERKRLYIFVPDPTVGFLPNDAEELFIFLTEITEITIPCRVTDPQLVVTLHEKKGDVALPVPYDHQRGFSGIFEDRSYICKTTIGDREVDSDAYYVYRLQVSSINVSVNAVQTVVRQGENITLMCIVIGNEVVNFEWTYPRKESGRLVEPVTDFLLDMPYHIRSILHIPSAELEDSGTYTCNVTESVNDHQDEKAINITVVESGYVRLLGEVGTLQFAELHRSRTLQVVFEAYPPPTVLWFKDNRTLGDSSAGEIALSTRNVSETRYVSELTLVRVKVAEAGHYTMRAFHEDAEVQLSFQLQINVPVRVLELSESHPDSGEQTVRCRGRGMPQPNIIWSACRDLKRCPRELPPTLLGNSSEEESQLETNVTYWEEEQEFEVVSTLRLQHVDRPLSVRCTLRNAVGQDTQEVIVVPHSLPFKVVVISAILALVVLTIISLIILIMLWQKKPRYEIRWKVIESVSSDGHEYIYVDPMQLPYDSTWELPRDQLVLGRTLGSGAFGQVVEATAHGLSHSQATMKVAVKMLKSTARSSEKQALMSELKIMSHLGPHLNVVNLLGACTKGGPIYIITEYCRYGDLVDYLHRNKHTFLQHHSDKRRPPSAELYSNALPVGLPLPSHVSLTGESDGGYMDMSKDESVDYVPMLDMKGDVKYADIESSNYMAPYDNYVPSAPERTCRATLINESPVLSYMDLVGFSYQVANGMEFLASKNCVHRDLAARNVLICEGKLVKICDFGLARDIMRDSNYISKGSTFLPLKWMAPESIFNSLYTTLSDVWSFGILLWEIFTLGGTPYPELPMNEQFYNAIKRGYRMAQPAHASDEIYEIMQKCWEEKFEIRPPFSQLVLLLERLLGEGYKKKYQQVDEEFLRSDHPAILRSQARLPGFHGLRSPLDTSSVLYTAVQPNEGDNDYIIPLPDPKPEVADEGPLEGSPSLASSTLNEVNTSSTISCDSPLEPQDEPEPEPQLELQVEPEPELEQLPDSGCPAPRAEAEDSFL
Structure (SMILES),Cell viability at 100 nM (%) [1],Cell viability at 300 nM (%) [1],Cell viability at 1000 nM (%) [1],IC50 [2],Ki [3],"recovery at 5 hr, 10 μM [4, 5]","Papp at 5 h, 10 μM ([4]; PAMPA, 5 hr)","recovery at 5 hr, 10 μM [4, 6]","% Recovery ([4]; PAMPA, donor and acceptor compartments)","Mean Papp ([4]; pH 7, 10 μM, 5 hr)"
COC(=O)c1ccc2c(c1)NC(=O)/C2=C(\Nc1ccc(C(=O)NOCCN2CCN(C)CC2)c(F)c1)c1ccccc1 [Example 33],110.7%,101.3%,91.3%,8.99 nM,8.47 nM,71.9%,0.00743 ×10⁻⁶ cm/s,–,–,–
COC(=O)c1cc2c(cc1C)/C(=C(/Nc1ccc(C(=O)N(C)OCCN3CCN(CCO)CC3)cc1)c1ccccc1)C(=O)N2 [Example 58],110.2%,116.9%,55.6%,4.06 nM,8.87 nM,49.5%,0.0296 ×10⁻⁶ cm/s,–,–,–
COC(=O)c1cc2c(cc1C)/C(=C(/Nc1ccc(C(=O)N(C)OCCN3C4CCC3CNC4)cc1)c1ccccc1)C(=O)N2 [Example 60],88.8%,84.4%,0.2%,5.6 nM,13 nM,–,0.0503 ×10⁻⁶ cm/s,69.2%,–,–
COC(=O)c1cc2c(cc1C)/C(=C(/Nc1ccc(C(=O)NOC3CCN(C)CC3)cc1)c1ccccc1)C(=O)N2 [Example 30],96.1%,87.7%,26%,7.43 nM,7.32 nM,87%,0.00225 ×10⁻⁶ cm/s,–,–,–
COC(=O)c1cc2c(cc1C)/C(=C(/Nc1ccc(C(=O)NOCCN3CCN(C)CC3)c(F)c1)c1ccccc1)C(=O)N2 [Example 32],93.5%,82.3%,66.3%,3.09 nM,4.92 nM,42.8%,0.0192 ×10⁻⁶ cm/s,–,–,–
COC(=O)c1ccc2c(c1)NC(=O)/C2=C(\Nc1ccc(C(=O)N(C)OCCN2CCN(C)CC2)c(C)c1)c1ccccc1 [Example 18],104.5%,90.3%,68.7%,3.68 nM,11 nM,51.5%,0.424 ×10⁻⁶ cm/s,–,–,–
COC(=O)c1cc2c(cc1C)/C(=C(/Nc1ccc(C(=O)NOCCCN(C)C)c(C)c1)c1ccccc1)C(=O)N2 [Example 29],92%,85.8%,91.8%,3.18 nM,7.48 nM,65.1%,0.00415 ×10⁻⁶ cm/s,–,–,–
COC(=O)c1cc2c(cc1C)/C(=C(/Nc1ccc(C(=O)N(C)OCCN3C[C@@H]4C[C@H]3CN4)cc1)c1ccccc1)C(=O)N2 [Example 59],123.5%,107.7%,103.8%,25.4 nM,9.19 nM,69.6%,0.0364 ×10⁻⁶ cm/s,–,–,–
COC(=O)c1ccc2c(c1)NC(=O)/C2=C(\Nc1ccc(S(=O)(=O)N(C)OCCN2CCN(C)CC2)cc1)c1ccccc1 [Example 25],108.5%,104.8%,79.3%,19.4 nM,19.8 nM,41.5%,30 ×10⁻⁶ cm/s,–,–,–
COC(=O)c1cc2c(cc1C)/C(=C(/Nc1ccc(C(=O)NOCCCN(C)C)cc1)c1ccccc1)C(=O)N2 [Example 27],94.9%,88.6%,86.4%,10.4 nM,4.77 nM,61.2%,0.00146 ×10⁻⁶ cm/s,–,–,–
COC(=O)c1cc2c(cc1C)/C(=C(/Nc1ccc(C(=O)NOCCN3CCC(N(C)C)CC3)cc1)c1ccccc1)C(=O)N2 [Example 50],107.5%,92.6%,69.7%,9.42 nM,9.24 nM,179%,0.0566 ×10⁻⁶ cm/s,–,–,–
COC(=O)c1cc2c(cc1C)/C(=C(/Nc1ccc(C(=O)NOCCN3CC[C@H](N(C)C)C3)cc1)c1ccccc1)C(=O)N2 [Example 51],86.5%,85.8%,71.2%,9.39 nM,9.44 nM,62%,0.00306 ×10⁻⁶ cm/s,–,74.7%,0.00474 10^−6 cm s^−1
COC(=O)c1ccc2c(c1)NC(=O)/C2=C(\Nc1ccc(C(=O)NOCCCN(C)C)cc1)c1ccccc1 [Example 19],108.3%,92.7%,76.9%,5.95 nM,9.62 nM,54.6%,0.00329 ×10⁻⁶ cm/s,–,–,–
COC(=O)c1cc2c(cc1C)/C(=C(/Nc1ccc(C(=O)N(C)OCCN(C)CCO)cc1)c1ccccc1)C(=O)N2 [Example 56],132%,121%,70.5%,3.95 nM,7.19 nM,69.7%,0.719 ×10⁻⁶ cm/s,–,–,–
COC(=O)c1cc2c(cc1C)/C(=C(/Nc1ccc(C(=O)NOCCN3CCCCC3)cc1)c1ccccc1)C(=O)N2 [Example 49],124.5%,110.8%,69.4%,40.2 nM,31.1 nM,75.2%,0.0768 ×10⁻⁶ cm/s,–,–,–
COC(=O)c1ccc2c(c1)NC(=O)/C2=C(\Nc1ccc(C(=O)NOCCN2CC[C@H](N(C)C)C2)cc1)c1ccccc1 [Example 38],89.3%,90.8%,93%,14.6 nM,6.91 nM,55.4%,0.00569 ×10⁻⁶ cm/s,–,–,–
COC(=O)c1ccc2c(c1)NC(=O)/C2=C(\Nc1ccc(C(=O)NOCCN2CCS(=O)(=O)CC2)cc1)c1ccccc1 [Example 41],112.3%,96.1%,86.8%,37.4 nM,15 nM,59.6%,0.00258 ×10⁻⁶ cm/s,–,–,–
COC(=O)c1cc2c(cc1C)/C(=C(/Nc1ccc(C(=O)N(C)OCCN3CC4CCC(C3)N4)cc1)c1ccccc1)C(=O)N2 [Example 61],83%,86.6%,35.2%,7.84 nM,18.3 nM,–,0.0205 ×10⁻⁶ cm/s,64.4%,–,–
CCN1CCN(CCONC(=O)c2ccc(N/C(=C3\C(=O)Nc4cc(C(=O)OC)c(C)cc43)c3ccccc3)cc2)CC1 [Example 36],108.8%,93%,65.9%,9.44 nM,8.46 nM,53.1%,0.0301 ×10⁻⁶ cm/s,–,–,–
